In patent US12247223B2, “Human liver-like three-dimensional structure, method for evaluating hepatotoxicity and human liver-like complex” (CYFUSE BIOMEDICAL K.K., priority 2019, dated 2025):

Experiments:
[1] = test system: human liver-like three-dimensional construct A′; details: 10 μmol/l
Protocol: (§1) A DMSO solution of phenytoin was prepared. The obtained drug-containing DMSO solution was added to the culture medium of the human liver-like three-dimensional construct A′ fabricated in Experimental example 3′ such that the concentration of the drug in the medium was 10 μmol/l. The medium was sampled up to 6 days following the drug addition, and the metabolic products in the medium were subjected to separation and structural analysis by a LC/MS/MS method. The abbreviations of the metabolites stand for the following constructs.
as §1, with “Torcetrapib” for “phenytoin”, “method.” for “method. The abbreviations of the metabolites stand for the following constructs.”

[2] = test system: human liver-like three-dimensional construct A; experiment: miR-122-5p in exosomes released from the construct, digital PCR; assay type: cell-based; details: exosomes from culture medium of Experimental example 5
Protocol: (§2) A DMSO solution of trovafloxacin, a drug that is known to show hepatotoxicity when administered to a human, was prepared. […] Changes in the albumin concentrations in the media up to 24 days following addition of the drug, and the levels of ATP contained in the constructs at the end of the experiment were measured using CellTiter-Glo 3D substrate. Furthermore, tissue sections of the constructs were prepared to obtain images of HE staining and immunostaining for albumin.
(§3) The culture medium of Experimental example 5 was centrifuged at 4° C. and 2,000×g for 20 minutes, followed by centrifugation of the collected supernatant at 15,000×g for 30 minutes. To 2.2 mL of each collected sample solution, 1.1 mL of ExoCap Ultracentrifugation/Storage Booster (registered trademark) and 7.7 mL of ultrapure water were added. […]
(§4) The number and the particle-size distribution of the exosome particles were measured using qNano (nanoparticle multi-analyzer). In addition, expression of CD9 in the collected exosomes was confirmed by Western blotting. miRNAs contained in a sample extracted from the exosomes using a RNA extraction kit were measured by digital PCR. Furthermore, microRNAs contained in the exosomes were taken out and the amounts of miR-122, miR-192 and miR-1 were quantified by a quantitative PCR method. […]

[3] = test system: human liver-like three-dimensional construct A; experiment: Assessment of hepatotoxicity: albumin concentration in the medium of the construct; assay type: cell-based; details: drug 5-1000 μmol/l in medium, up to 24 days
Protocol: as §2
DMSO solutions of 20 kinds of drugs that were known to show hepatotoxicity upon administration to a human were prepared. […] Changes in the albumin concentrations in the media 7 and 14 days following addition of the drug are shown in FIG. 8, in which data were normalized to the albumin concentration in the medium added with DMSO only (taken as 100%).

[4] = test system: monolayer culture system; experiment: Albumin concentration in monolayer culture system (standard of comparison); assay type: cell-based; details: monolayer culture as standard of comparison (details omitted)
[5] = test system: human liver-like three-dimensional construct A; experiment: Number and particle-size distribution of exosome particles (qNano); assay type: cell-based; details: three days after drug addition
Protocol: as §3, with “added. The resultant was homogeneously stirred and subjected to ultracentrifugation protocol (35,000 rpm, 70 minutes,4° C.).” for “added.”
as §4
An increase in the particle number concentration of the exosomes contained in the media was observed only three days after the drug addition. Furthermore, miR-122 was detected in the collected exosomes.

CCOC(=O)N1c2ccc(C(F)(F)F)cc2[C@@H](N(Cc2cc(C(F)(F)F)cc(C(F)(F)F)c2)C(=O)OC)C[C@H]1CC [Torcetrapib]
metabolic products separated and detected by LC [1]: Two kinds of metabolic products M2 and M5

N[C@@H]1[C@H]2CN(c3nc4c(cc3F)c(=O)c(C(=O)O)cn4-c3ccc(F)cc3F)C[C@@H]12 [Trovafloxacin, trovafloxacin]
miR-122 in the collected exosomes [2]: detected
albumin concentration in the medium [3]: drug concentration-dependent decrease
albumin concentration, monolayer culture system [4]: no decrease
particle number concentration of the exosomes in the media [5]: increase
